Measurements from patent US20080188554A1, “METHODS OF TREATING AVIAN HYPERTENSION” (Regents of the University of California Office of …, priority 2006, published 2008).
Where two headings read alike, the source gives them in different places.

Legend:
sEH = biological target: T1, sEH (Homo sapiens, UniProt P34913); details: t-DPPO as substrate, from Morisseau 2000; cited from earlier work
T1 sequence (P34913 1-555): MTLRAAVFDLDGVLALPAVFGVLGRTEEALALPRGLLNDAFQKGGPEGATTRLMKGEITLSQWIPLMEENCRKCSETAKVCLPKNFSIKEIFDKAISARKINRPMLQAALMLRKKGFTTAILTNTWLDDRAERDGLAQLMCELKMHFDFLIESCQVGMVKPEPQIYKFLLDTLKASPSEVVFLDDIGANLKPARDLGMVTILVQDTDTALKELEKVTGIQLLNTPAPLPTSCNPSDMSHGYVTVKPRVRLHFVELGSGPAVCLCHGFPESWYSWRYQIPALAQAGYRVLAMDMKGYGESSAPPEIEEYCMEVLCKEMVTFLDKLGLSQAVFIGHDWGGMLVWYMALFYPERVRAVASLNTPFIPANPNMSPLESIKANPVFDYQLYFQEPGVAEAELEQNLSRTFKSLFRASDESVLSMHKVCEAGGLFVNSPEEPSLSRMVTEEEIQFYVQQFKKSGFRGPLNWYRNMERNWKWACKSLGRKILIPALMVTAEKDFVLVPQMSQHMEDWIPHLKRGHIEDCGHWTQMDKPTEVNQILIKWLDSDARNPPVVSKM

Recombinant chicken sEH [1] = biological target: T2, Recombinant chicken sEH (Gallus gallus, UniProt Q45QT1); test: Radiotracer epoxide hydrolase activity and kinetic parameters using t-DPPO as substrate; assay type: biochemical
Description: (§1) Epoxide hydrolase activity was measured using racemic [^3H]-trans-1,3-diphenylpropene oxide (t-DPPO) as substrate (Borhan, B. et al., Anal. Biochem. 231:188-200 (1995)). t-DPPO was previously synthesized and purified Borhan, B. et al., Anal. Biochem. 231:188-200 (1995)). 1 μL of a 5 mM solution of [^3H]t-DPPO in DMF was added to 100 μL of enzyme preparation in sodium phosphate buffer (0.1 M, pH 7.4) containing 0.1 mg/mL of BSA ([S]final=50 μM). The enzyme was incubated at 30 °C for 10 min, and the reaction quenched by addition of 60 μL of methanol and 200 μL of isooctane, which extracts the remaining epoxide from the aqueous phase. Extractions with 1-hexanol were performed in parallel to assess the possible presence of glutathione transferase activity which could also transform the substrate (Borhan, B. et al., Anal. Biochem. 231:188-200 (1995)). The activity was followed by measuring the quantity of radioactive diol formed in the aqueous phase using a scintillation counter (Wallac Model 1409, Gaithersburg, Md.). Assays were performed in triplicate.
A solution of [^3H] t-DPPO (1 μL in DMF) was added to 100 μL of enzyme preparation in sodium phosphate buffer (0.1 M, pH 7.4) containing 0.1 mg/mL of BSA ([S]final=50 μM). The Km determination was performed by fitting the data to the Michaelis-Menten equation using the nonlinear regression algorithm in SigmaPlot (SPSS, Inc., Chicago, Ill.) with an R-squared value of at least 0.97. The standard deviation was generated by performing the experiment three separate times in triplicate.

mouse sEH [2] = biological target: T3, mouse sEH (Mus musculus, UniProt P34914); details: t-DPPO as substrate, from Morisseau 2000; cited from earlier work
T3 sequence (P34914 1-554): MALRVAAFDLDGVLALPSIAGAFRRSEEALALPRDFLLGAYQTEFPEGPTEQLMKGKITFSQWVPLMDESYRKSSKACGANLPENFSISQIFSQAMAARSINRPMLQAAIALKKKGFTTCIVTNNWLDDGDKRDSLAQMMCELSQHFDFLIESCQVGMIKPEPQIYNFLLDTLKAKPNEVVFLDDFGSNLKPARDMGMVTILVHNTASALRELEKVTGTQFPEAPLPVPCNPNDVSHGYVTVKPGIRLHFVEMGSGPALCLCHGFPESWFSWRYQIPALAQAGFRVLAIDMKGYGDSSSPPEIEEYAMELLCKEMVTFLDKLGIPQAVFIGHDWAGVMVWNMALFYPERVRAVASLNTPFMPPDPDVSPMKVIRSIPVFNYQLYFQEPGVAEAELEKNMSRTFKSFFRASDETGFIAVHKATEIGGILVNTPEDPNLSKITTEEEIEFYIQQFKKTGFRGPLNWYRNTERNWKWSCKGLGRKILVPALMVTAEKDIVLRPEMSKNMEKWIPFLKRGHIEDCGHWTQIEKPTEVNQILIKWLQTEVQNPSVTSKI

Recombinant chicken sEH [3] = biological target: T2, Recombinant chicken sEH; test: Non-radioactive epoxide hydrolase assay (HPLC-MS/MS), specific activity of substrates; assay type: biochemical; details: for Specific activity: compound as substrate, 50 μM, 30° C., 10 min
Description: The trans-9,10-epoxystearate was purchased (Sigma-Aldrich). A 5 mM solution of each substrate was made in ethanol for the EETs and methanol for the epoxystearate. The substrate solution (1 μL) was added to 100 μL of enzyme preparation in sodium phosphate buffer (0.1 M, pH 7.4) containing 0.1 mg/mL of BSA ([S]final=50 μM). The enzyme was incubated with the substrate at 30° C. for 10 min, and the reaction quenched by addition of 400 μL of methanol. The products were analyzed by HPLC-MS/MS as previously described (Newman, J. W. et al., J. Lipid Res. 43:1563-1578 (2002)) with the following exceptions. A 2.0×20 mm, 3-μm Luna C18 Mercury MS column (Phenomenex, Torrance, Calif.) was used with a 350 μL/min isocratic flow of […] (vol/vol/vol) acetonitrile/water/methanol with 0.1% glacial acetic acid for 2.5 min. Assays were performed in triplicate.

mouse sEH [4] = biological target: T3, mouse sEH; details: compound as substrate, from Chacos 1983; cited from earlier work
Recombinant chicken sEH [5] = biological target: T2, Recombinant chicken sEH; test: IC50 determination using [3H]-t-DPPO as substrate; assay type: biochemical
Description: The IC50 values reported herein were determined using racemic [^3H]-trans-1,3-diphenylpropene oxide (t-DPPO) as a substrate (Borhan, B. et al., Anal. Biochem. 231:188-200 (1995)). The inhibitors were synthesized as described (Morisseau, C. et al., Biochem. Pharmacol. 63:1599-1608 (2002)). Extracts of broiler hepatic cytosol or partially purified enzyme was diluted 50-fold in pH 7.4 0.1 M sodium phosphate buffer containing 0.1 mg/mL BSA, then incubated with the inhibitors for 5 min at 30° C. prior to substrate introduction. Prepared samples were incubated at 30° C. for 10 min and stopped as indicated above. Conditions used gave rates that were linear both with time and enzyme concentration. Assays were performed in triplicate. By definition, IC50 is the concentration of inhibitor that reduces enzyme activity by 50%. IC50 was determined by regression with a minimum of two points in the linear region of the curve on either side of the IC50 (for a total of 5 points). The curve was generated from at least three separate studies conducted in triplicate in order to obtain the standard deviation given in the results section.

[6] = biological target: partially purified recombinant chicken sEH (Gallus gallus, UniProt Q45QT1); test: Inhibitor assay with fluorescent substrate PHOME; assay type: biochemical; details: PHOME 50 μM
Description: Dilutions of enzyme, inhibitors and substrate were made in BisTris-HCl buffer (25 mM, pH 7.0, 0.1 mg/ml BSA). The enzyme was incubated with 20 μL of inhibitor dilutions for 10 min prior to substrate addition. After this incubation, 50 μL of (3-phenyl-oxiranyl)-acetic acid cyano-(6-methoxy-naphthalen-2-yl)-methyl ester (PHOME) at a final concentration of 50 μM (1% final DMSO content per well) was added.
The inhibitor screen occurred in two steps. The first step was incubation with a final inhibitor concentration of 100 nM. Positive hits obtained in this primary screen were then incubated with inhibitors at final concentrations of 1, 10, and 100 nM.

[7] = substrate: c1ccc(CC2OC2c2ccccc2)cc1; test: Radiotracer epoxide hydrolase activity and kinetic parameters using t-DPPO as substrate; assay type: biochemical; details: other: t-DPPO as substrate; recombinant chicken sEH; pH 7.4; 30.0 °C
Description: as §1
A solution of [^3H] t-DPPO (1 μL in DMF) was added to 100 μL of enzyme preparation in sodium phosphate buffer (0.1 M, pH 7.4) containing 0.1 mg/mL of BSA ([S]final=50 μM). […]

[8] = partially purified recombinant chicken sEH, read-out: Chicken sEH IC50

Molecule: c1ccc(CC2OC2c2ccccc2)cc1 (racemic) [t-DPPO, trans-1,3-diphenylpropene oxide]
- Km (sEH): 6.2 µM
- Specific activity (sEH): 4500 ± 200.0 nmol/min/mg
- kcat (sEH): 4.3 ± 0.3 s⁻¹
- kcat/Km ratio of chicken enzyme, fold lower than human enzyme (Recombinant chicken sEH [1]; compared to human sEH): 20 fold
- kcat/Km ratio of chicken enzyme, fold lower than mouse enzyme (Recombinant chicken sEH [1]; compared to mouse sEH): 100 fold
- Specific activity (Recombinant chicken sEH [1]; recombinant chicken sEH, mean ± SD of 3 experiments): 823.1 ± 27.3 nmol/min/mg
- Km (mouse sEH [2]): 4.3 µM
- Specific activity (mouse sEH [2]): 17000 ± 300.0 nmol/min/mg
- kcat (mouse sEH [2]): 18.0 ± 0.3 s⁻¹

Molecule: CCCCC/C=C\C/C=C\CC1OC1C/C=C\CCCC(=O)O (centres unmarked) [8,9-EET]
- Specific activity (Recombinant chicken sEH [3]): 11.6 ± 0.1 nmol/min/mg
- Specific activity (mouse sEH [4]): 370.0 nmol/min/mg

Molecule: CCCCC/C=C\CC1OC1C/C=C\C/C=C\CCCC(=O)O (centres unmarked) [11,12-EET]
- Specific activity (Recombinant chicken sEH [3]): 12.0 ± 1.2 nmol/min/mg
- Specific activity (mouse sEH [4]): 640.0 nmol/min/mg

Molecule: CCCCCC1OC1C/C=C\C/C=C\C/C=C\CCCC(=O)O (centres unmarked) [14,15-EET]
- Activity relative to the activity measured with t-DPPO (Recombinant chicken sEH [3]): less than 1/30
- Specific activity (Recombinant chicken sEH [3]): 24.5 ± 2.1 nmol/min/mg
- Specific activity (mouse sEH [4]): 1260.0 nmol/min/mg

Molecule: O=C(O)CCCCCCCCCCCNC(=O)NC12CC3CC(CC(C3)C1)C2 [AUDA, 12-(3-Adamantan-1-yl-ureido)dodecanoic acid]
- IC50 (Recombinant chicken sEH [5]): 13.7 nM

Molecule: O=C(O)CCCCCCCCCCCNC(=O)NC12CC3CC(CC(C3)C1)C2 [Compound 700]
- IC50 ([6]; Chicken sEH IC50, partially purified recombinant chicken sEH): 12.6 ± 1.6 nM

Molecule: CCCCCOC(=O)C1CCCC(NC(=O)NC23CC4CC(CC(C4)C2)C3)C1 (centres unmarked) [Compound 861]
- IC50 [6, 8]: 5.7 ± 0.3 nM

Molecule: CCCCCOC(=O)C1CCC(NC(=O)NC23CC4CC(CC(C4)C2)C3)CC1 (centres unmarked) [Compound 863]
- IC50 [6, 8]: 5.2 ± 0.2 nM

Molecule: C=CCOC1CCC(NC(=O)NC23CC4CC(CC(C4)C2)C3)CC1 (centres unmarked) [Compound 982]
- IC50 [6, 8]: 1.7 ± 0.1 nM

Molecule: CC(C)=CCOC1CCC(NC(=O)NC23CC4CC(CC(C4)C2)C3)CC1 (centres unmarked) [Compound 983]
- IC50 [6, 8]: 5.3 ± 0.2 nM

Molecule: O=C(NCCCc1ccccc1)NC1CCC(Oc2ccc(F)cc2)CC1 (centres unmarked) [Compound 1270]
- IC50 [6, 8]: 3.5 ± 0.1 nM

Molecule: O=C(NC1CCCCCC1)NC1CCC(Oc2ccc(F)cc2)CC1 (centres unmarked) [Compound 1271]
- IC50 [6, 8]: 2.7 ± 0.3 nM

Molecule: O=C(NC1CCCCCCC1)NC1CCC(Oc2ccc(F)cc2)CC1 (centres unmarked) [Compound 1272]
- IC50 [6, 8]: 5.1 ± 0.3 nM

Molecule: O=C(Nc1cccc(C(F)(F)F)c1)NC1CCC(OCc2c(F)cccc2F)CC1 (centres unmarked) [Compound 1285]
- IC50 [6, 8]: 4.4 ± 0.1 nM

Molecule: O=C(Nc1ccc(C(F)(F)F)cc1)NC1CCC(OCc2c(F)cccc2F)CC1 (centres unmarked) [Compound 1289]
- IC50 [6, 8]: 3.5 ± 0.1 nM

Molecule: O=C(Nc1cccc(Cl)c1)NC1CCC(OCc2c(F)cccc2F)CC1 (centres unmarked) [Compound 1302]
- IC50 [6, 8]: 2 ± 0.1 nM

Molecule: O=C(Nc1cccc(Br)c1)NC1CCC(OCc2c(F)cccc2F)CC1 (centres unmarked) [Compound 1308]
- IC50 [6, 8]: 2.4 ± 0.1 nM

Molecule: O=C(NCCCc1ccccc1)NC1CCC(OCc2c(F)cccc2F)CC1 (centres unmarked) [Compound 1318]
- IC50 [6, 8]: 1.9 ± 0.1 nM

Molecule: O=C(NC1CCCCCC1)NC1CCC(Oc2ccc(F)cc2)CC1 (centres unmarked) [Compound 1515]
- IC50 [6, 8]: 2.6 ± 0.1 nM

B1: Recombinant chicken sEH (Gallus gallus) (protein)
chain: MARRFALFDLGGVLFGPGLQHFLGSCERSYALPRNFLRDVLFAGGSDSPHAKVMRGQITLSQLFLEVDEGCRQHASTAGITLPTTFSIAHVFEEMAAKGTLNAPLLRAASMLRRNGFKTCVFTNNWVDDSMGRLFTSSLLTVVQRHFDLLIESCRVGLHKPDPRIYTYALEVLQAQPQEVIFLDDIGENLKPAREMGMATILVRDTDTVLKELQELSGVQLLQQEEPLPTTCDPATMSHGYVPIRPGVQLHFVEMGHGPAICLCHGFPESWLSWRYQIPALADAGFRVIALEMKGYGESTAPPEIEEYSQEQICKDLTIFLDKLGIPQAVFIGHDWGGAVVWNMALFYPERVRAVASLNTPYRPADPTVDIVETMKSFPMFDYQFYFQEPGVAEAELEKDIGRTLKALIRSTRPEDRLHSVPGLLGVQERGGLLVGFPEDIPESLILHGAELQYYIERFQRSGFRGPLNWYRNMRPNWRWALSAKDRKILMPALMVTAGKDVVLLPSMSKGMEEWIPQLRRGHLEACGHWTQMERPAALNRILVEWLEGLPPDGAMLRVSRL
- Km [7]: 25.3 µM
